Experimental data taken from the METLIN SMRT retention time set (Domingo-Almenara et al. 2019).

Assay: gradient 5% acetonitrile 3 min, to 50% in 2 min, to 85% in 15 min, held 3 min, 100 µL/min
Conditions: column: Zorbax Extend-C18 2.1 x 50 mm; eluents: water / acetonitrile, 0.1% formic acid
How it was run: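 Retention time was recorded from adduct peaks, which were picked computationally and each inspected manually. Pure standards ran in mixtures of ~100 molecules on HPLC coupled to a quadrupole time-of-flight mass spectrometer, in positive and negative ionization mode, through a Zorbax Extend-C18 column (2.1 × 50 mm, 1.8 μm) at 100 μL/min. Eluents were water and acetonitrile, each with 0.1% formic acid.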

| RP-LC retention time | SMILES |
| --- | --- |
| 913 s | CCS(=O)(=O)Nc1ccc(C2(C(=O)NCc3cccs3)CCCCC2)cc1 |
| 619 s | O=C(c1ccncc1)N1CCN(c2cc(-c3cccs3)[nH]n2)CC1 |
| 954 s | Cc1ccc(F)c(NC(=O)c2cnc(-c3ccc(F)cc3)nc2-c2ccncc2)c1 |
| 605 s | CCN(CC)CCNC(=O)Cn1ncc2c3ccccc3n(Cc3ccccc3)c2c1=O |
| 848 s | Cc1c(C)n(-c2ccccc2)c2ncn(CC(=O)NC(C)Cc3ccco3)c(=O)c12 (configuration not stated) |
| 897 s | O=C(NCc1ccc(F)cc1)N1CCCC1c1nc(-c2ccc(F)cc2F)no1 (configuration not stated) |
| 613 s | CCN1CCN(C(=O)C2CCc3sc(C(=O)N4CCCCC4)cc3C2)CC1 (configuration not stated) |
| 1050 s | O=C(C1CCN(S(=O)(=O)c2ccc(-c3noc(/C=C/c4cccs4)n3)cc2)CC1)N1CCCC1 |
| 604 s | O=C(c1ccc2ccccc2n1)N1CC(n2ccnc2)C1 |
| 708 s | O=C(NCc1ccco1)c1ccc(-c2ccc(N3CCSCC3)nc2)cc1 |
| 683 s | Cc1cc(C)n(CCNC(=O)CSCc2ccccc2)n1 |
| 1150 s | COC(=O)c1ccc2c(=O)n(-c3cccc(F)c3)c(N3CCCCC3)nc2c1 |
| 597 s | COC1CCC12CCN(Cc1cccc(C#N)c1)CC2 (configuration not stated) |
| 767 s | CCCC(=O)Nc1cc2c(cc1S(=O)(=O)c1ccc(F)cc1)n(C)c(=O)n2C |
| 690 s | CCN(CC)c1cc(CNC(=O)Nc2cc(Cl)ccc2OC)ccn1 |
| 696 s | O=C(Nc1ccc2c(c1)CN(C(=O)c1cc(C3CC3)[nH]n1)CCO2)C1CC1 |
| 811 s | COc1ccccc1NC(=O)N1CCC(CNC(=O)c2cc(Cl)ccc2Cl)CC1 |
| 548 s | COc1coc(C(=O)N2CCN(S(C)(=O)=O)CC2)cc1=O |
| 784 s | O=c1c(NCC2CCCCC2)nc2ccncc2n1Cc1ccccc1 |

| RP-LC retention time | SMILES |
| --- | --- |
| 1020 s | COc1ccc(-c2nc(-c3ccc4c(c3)oc(=O)n4C)no2)cc1 |
| 906 s | O=C(NCCC1=CCCCC1)C1CC(=O)N(C2CCCCCC2)C1 (configuration not stated) |
| 673 s | CC(C)NC(=O)c1ncn2c1C(=O)N(C1CC1)C(C)(C(=O)NCc1ccc(F)cc1)C2 (configuration not stated) |
| 939 s | CCNC(=O)N1CC(Oc2cccc(-c3nc(-c4ccccc4)no3)c2)C1 |
| 859 s | COc1ccc(-n2c(=O)n(C)c(=O)c3cc(C(=O)NCc4ccccc4OC)cnc32)cc1 |
| 823 s | CCc1nc2ccccc2c(=O)n1Cc1noc(C2CC(=O)N(c3ccccc3)C2)n1 (configuration not stated) |
| 747 s | O=C(C1CCN(c2cnc3nccnc3c2)CC1)N1CCN(c2ccccc2F)CC1 |
| 1060 s | CS(=O)(=O)c1ccccc1C(=O)Nc1c2c(nn1-c1nc3ccccc3s1)CCC2 |
| 615 s | O=C(Cn1ncc2c(c1=O)N(C1CC1)C(=O)CS2)NC1CCCC1 |
| 792 s | CCCNC(=O)c1cc(N2CCCC2)n2nccc2n1 |
| 764 s | CCOC(=O)CSCC(=O)Nc1nnc(-c2cccc([N+](=O)[O-])c2)s1 |
| 1010 s | CCn1c(=O)sc2cc(S(=O)(=O)N3CCC(C(=O)Nc4cccc5c4CCCC5)CC3)ccc21 |
| 704 s | COc1cc(C)c(C)cc1S(=O)(=O)NCC1(CO)CC1 |
| 605 s | CO[C@H]1CN(C2CCN(S(=O)(=O)c3cccc4cccnc34)CC2)[C@H]1c1cccnc1 |
| 846 s | COc1ccc(C2CC(=O)c3c([nH]c(C(=O)OCC4CCCO4)c3C)C2)cc1OC (configuration not stated) |
| 915 s | CCCn1c(=O)c(-c2ccc(C(=O)NC(C)C)cc2)nc2ccccc21 |
| 828 s | CC(C)NC(=O)c1ccc(OCC2CCN(C(=O)c3ccccc3)CC2)cc1 |
| 1250 s | O=C1CN(S(=O)(=O)c2cccc(C(F)(F)F)c2)CC2(CCCCC2)N1C1CCCC1 |
